In patent US4103011A, “Novel penicillin compounds and process for preparation thereof” (priority 1976, dated 1978):
Structures can show the parent of a compound that is named as a salt. Where two headings read alike, the source gives them in different places.

Key:
in vivo = details: mouse
Escherichia coli P-5101 [1] = test: In vivo efficacy against systemic infection; set-up: species or system male mice (ddY); details: P5101, in Mus musculus, 168 h, twice, about 5 minutes and 6 hours after infection, read-out: ED50 (median effective dose)
Protocol: (§1) The contents in the vials (No. A and No. C) prepared in Example 17 were each dissolved in deionized water, and injections having various concentrations were prepared.
(§2) Compounds A, B, F, G, H and M were dissolved in deionized water.
(§3) Mice: male mice (ddY) weighting about 20g
(§4) Intraperitoneal infection with 50 to
(§5) of a bacterial suspension in tryptosoy
(§6) twice, about 5 minutes and 6 hours after
(§7) calculated in accordance with the Behrens-Kaerber method [Arch. Exp. Path

[2] = system: bacteria (systemic infection); test: In vivo efficacy against systemic infection, overall conclusions; set-up: species or system male mice (ddY); details: Table II
Protocol: as §1
(§8) Compounds A, B, F, G, H and M were dissolved in deionized water. Compounds C, D, E and J were dissolved in an aqueous solution of sodium carbonate (pH 8-9) to prepare injections of various concentrations.
(§9) Each of the injections was administered to mice under the conditions described below, and the median effective doses (ED50) obtained are shown in Table II.

[3] = system: Staphylococcus aureus No. 50774; test: In vivo efficacy against systemic infection; set-up: species or system male mice (ddY); details: NO.50774, in Mus musculus, 336 h, sc, twice, about 5 minutes and 6 hours after infection, read-out: ED50 (median effective dose)
Protocol: as §1, §8, §9, §3
Staphylococcus aureus No. 50774;
Intravenous infection with 50 to 100
LD50 (about 5 × 10^8cells/mouse) of a
bacterial suspension in saline.
as §6
Staphylococcus aureus No. 50774 14 days
The numerals in the table show ED50 (mg/kg). ED50 values were
as §7

[4] = system: Pseudomonas aeruginosa No. 12; test: In vivo efficacy against systemic infection; set-up: species or system male mice (ddY); details: for ED50: NO.12, in Mus musculus
Protocol: as §1, §2, §3
Pseudomonas aeruginosa No. 12;
as §4, §5, §6
Pseudomonas aeruginosa No. 12
as §7

Proteus morganii Kono = test: In vitro antibacterial activity (MIC); type: cell-based; details: Morganella morganii; Proteus morganii Kono; read-out: minimum inhibitory concentration (MIC)
Excerpt: (§10) In vitro antibacterial activity against 20 strains of bacteria
(§11) The numerals in the table show minimum inhibitory concentrations (MIC)

[5] = system: Klebsiella pneumoniae No. 13; test: In vitro antibacterial activity (MIC); type: cell-based; details: Klebsiella pneumoniae No. 13; read-out: minimum inhibitory concentration (MIC)
Excerpt: as §10, §11

[6] = system: Shigella flexneri 4a P-330; test: In vitro antibacterial activity (MIC); type: cell-based; details: 4AP330, read-out: minimum inhibitory concentration (MIC)
Excerpt: as §10, §11

[7] = system: Escherichia coli NIHJ JC-2; test: In vitro antibacterial activity (MIC); type: cell-based; details: Escherichia coli, NIHJJC2, read-out: minimum inhibitory concentration (MIC)
Excerpt: as §10, §11

Proteus rettgeri P-2503 = test: In vitro antibacterial activity (MIC); type: cell-based; details: Providencia rettgeri
Excerpt: as §10, §11

[8] = system: Salmonella typhimurium S-9; test: In vitro antibacterial activity (MIC); type: cell-based; details: Salmonella enterica; Salmonella typhimurium S-9; read-out: minimum inhibitory concentration (MIC)
Excerpt: as §10, §11

Shigella flexneri 2a = test: In vitro antibacterial activity (MIC); type: cell-based; details: read-out: minimum inhibitory concentration (MIC)
Excerpt: as §10, §11

[9] = system: Corynebacterium pyogenes C-21; test: In vitro antibacterial activity (MIC); type: cell-based; details: Rhodococcus (subgen. Prescottella) equi, C21; Corynebacterium pyogenes C-21; read-out: minimum inhibitory concentration (MIC)
Excerpt: as §10, §11

[10] = system: Pseudomonas aeruginosa Tsuchijima; test: In vitro antibacterial activity (MIC); type: cell-based; details: read-out: minimum inhibitory concentration (MIC)
Excerpt: as §10, §11

[11] = system: Staphylococcus aureus No. 50774; test: In vitro antibacterial activity (MIC); type: cell-based; details: Staphylococcus aureus No. 50774; read-out: minimum inhibitory concentration (MIC)
Excerpt: as §10, §11

Escherichia coli P-5101 [12] = test: In vitro antibacterial activity (MIC); type: cell-based
Excerpt: as §10, §11

[13] = system: Streptococcus pyogenes 65A; test: In vitro antibacterial activity (MIC); type: cell-based; details: Streptococcus pyogenes 65A; read-out: minimum inhibitory concentration (MIC)
Excerpt: as §10, §11

Escherichia coli P-140a = test: In vitro antibacterial activity (MIC); type: cell-based
Excerpt: as §10, §11

[14] = system: Serratia mercescens IFO 3736; test: In vitro antibacterial activity (MIC); type: cell-based
Excerpt: as §10, §11

Proteus mirabilis P-2381 = test: In vitro antibacterial activity (MIC); type: cell-based; details: P2381; Proteus mirabilis P-2381; read-out: minimum inhibitory concentration (MIC)
Excerpt: as §10, §11

[15] = system: Salmonella enteritidis No. 1891; test: In vitro antibacterial activity (MIC); type: cell-based; details: Salmonella enterica; Salmonella enteritidis No. 1891; read-out: minimum inhibitory concentration (MIC)
Excerpt: as §10, §11

[16] = system: Staphylococcus aureus 209P JC-1; test: In vitro antibacterial activity (MIC); type: cell-based; details: Staphylococcus aureus 209P JC-1; read-out: minimum inhibitory concentration (MIC)
Excerpt: as §10, §11

[17] = system: Enterobacter cloacae P-2540; test: In vitro antibacterial activity (MIC); type: cell-based
Excerpt: as §10, §11

[18] = system: Pseudomonas aeruginosa No.12; test: In vitro antibacterial activity (MIC); type: cell-based; details: Pseudomonas aeruginosa, NO.12, read-out: minimum inhibitory concentration (MIC)
Excerpt: as §10, §11

[19] = system: Streptococcus faecalis P-2473; test: In vitro antibacterial activity (MIC); type: cell-based; details: Enterococcus faecalis
Excerpt: as §10, §11

[20] = iv, twice, about 5 minutes and 6 hours after infection, read-out: ED50 (median effective dose)
[21] = sc, twice, about 5 minutes and 6 hours after infection, read-out: ED50 (median effective dose)

Compound | LD50 at 168 h (in vivo; iv) [mg/kg] | LD50 at 168 h (in vivo; sc) [mg/kg] | selectivity ratio (in vivo; sc) | ED50 (Escherichia coli P-5101 [1]; iv) [mg/kg] | ED50 (Escherichia coli P-5101 [1]; sc) [mg/kg] | ED50 [3] [mg/kg] | ED50 [4, 20] [mg/kg] | ED50 [4, 21] [mg/kg] | MIC (Proteus morganii Kono) [µg/mL] | MIC [5] [µg/mL] | MIC [6] [µg/mL] | MIC [7] [µg/mL] | MIC [8] [µg/mL] | MIC (Shigella flexneri 2a) [µg/mL] | MIC [9] [µg/mL] | MIC [11] [µg/mL] | MIC [13] [µg/mL] | minimum inhibitory concentration (MIC) (Escherichia coli P-140a) [µg/mL] | MIC (Proteus mirabilis P-2381) [µg/mL] | MIC [15] [µg/mL] | also measured
CC(=O)N1CCN(c2ncc3c(=O)c(C(=O)N[C@@H](C(=O)N[C@@H]4C(=O)N5[C@@H]4SC(C)(C)[C@@H]5C(=O)O)c4ccc(O)cc4)c[nH]c3n2)CC1 [Compound 2, D-α-[5,8-Dihydro-2-(4-acetyl-1-piperazinyl)-5-oxopyrido[2,3-d]pyrimidine-6-carboxamido]-p-hydroxybenzylpenicillin sodium salt] | 4520 | > 6000 | > 1200 | 3.9 | 4.6 | 3.3 | 6 | 5 | 6.25 | 12.5 | 3.13 | 3.13 | 0.78 | 3.13 | 0.78 | 1.56 | 0.006 | 12.5 | 6.25 | 0.78 | selectivity ratio (in vivo; iv): 753; chemotherapeutic index relative to compounds B, D, E, F, G and J (times as high) (mice; Pseudomonas aeruginosa): 3 to 100 times; LD50 relative to compounds A to G (times as high) (mice; mice): 2 to 10 times; antibacterial activity in vivo (in words) [2]: excellent antibacterial activity in vivo; ED50 ([4]; parenteral administration, compounds 1 and 2 together, read-out: ED50): 2 to 6 mg/kg; antibacterial activity compared with compounds J and H (in words) ([4]; parenteral administration): far superior antibacterial activity; antibacterial activity relative to compounds B and C (times as high) ([4]; parenteral administration): 3 to 25 times; antibacterial activity relative to compounds D and E (times as high) ([4]; parenteral administration): 6 to 20 times; MIC (Proteus rettgeri P-2503; P2503, Proteus rettgeri P-2503, read-out: minimum inhibitory concentration (MIC)): 25 µg/mL; MIC ([10]; Pseudomonas aeruginosa Tsuchijima): 0.78 µg/mL; MIC (Escherichia coli P-5101 [12]; P5101, Escherichia coli P-5101, read-out: minimum inhibitory concentration (MIC)): 0.78 µg/mL; MIC ([14]; IFO3736, Serratia mercescens IFO 3736, read-out: minimum inhibitory concentration (MIC)): 6.25 µg/mL; MIC [16]: 1.56 µg/mL; MIC ([17]; P2540, Enterobacter cloacae P-2540, read-out: minimum inhibitory concentration (MIC)): 6.25 µg/mL; MIC [18]: 3.13 µg/mL; MIC ([19]; P2473, Streptococcus faecalis P-2473, read-out: minimum inhibitory concentration (MIC)): 6.25 µg/mL
CCN1CCN(C(=O)N[C@@H](C(=O)N[C@@H]2C(=O)N3[C@@H]2SC(C)(C)[C@@H]3C(=O)O)c2ccccc2)C(=O)C1=O [Compound H, D-α-(4-Ethyl-2,3-dioxopiperazine-1-carboxamido)-benzylpenicillin sodium salt] | > 4000 | > 6000 | > 42 | 43.3 | 26.3 | 8.8 | > 100 | 141 | 0.78 | 6.25 | 3.13 | 3.13 | 0.39 | 1.56 | 6.25 | 0.78 | 0.025 | 12.5 | 0.78 | 0.39 | LD50 compared with compounds 1 and 2 (in words) (mice; mice): almost the same; antibacterial activity in vivo as fraction of that of the penicillin compounds of this invention [2]: one-twentieth to one-seventieth; MIC (Proteus rettgeri P-2503; P2503, read-out: minimum inhibitory concentration (MIC)): 1.56 µg/mL; MIC ([10]; Pseudomonas aeruginosa): 1.56 µg/mL; MIC (Escherichia coli P-5101 [12]; Escherichia coli, P5101, read-out: minimum inhibitory concentration (MIC)): 1.56 µg/mL; MIC ([14]; Serratia, IFO3736, read-out: minimum inhibitory concentration (MIC)): 0.78 µg/mL; MIC [16]: 0.39 µg/mL; MIC ([17]; Enterobacter cloacae, P2540, read-out: minimum inhibitory concentration (MIC)): 3.13 µg/mL; MIC [18]: 3.13 µg/mL; MIC ([19]; P2473, read-out: minimum inhibitory concentration (MIC)): 3.13 µg/mL
